Assay results as given in US7714150B2, “Aminoalkyl-amidomethyl-substituted 2-(4-sulphonylamino)-3-hydroxy-3,4-dihydro-2H-chroman-6-yl derivatives” (Solvay Pharmaceuticals GmbH, priority 2005, dated 2010).

Columns and labels:
[1] = test system: left atrium of rats' hearts; experiment: Functional refractory period prolongation on isolated left atria of rats' hearts in vitro; parameters: species or system rat
Description: In this test model it is determined to what extent the Kv1.5-blocking substances of Formula I result in a prolongation of the functional refractory period in the left atrium of rats. The refractory period is the minimum possible elapsed time between the basic stimulus and additional stimulus in which a renewed contraction can be triggered. The extent of the prolongation of the functional refractory period is a measurement of the antiarrhythmic effectiveness of the substances according to the invention. The functional refractory period is determined by testing on the electrically stimulated preparation at what elapsed time from the preceding contraction a renewed contraction can be triggered by additional electrical stimuli.
The hearts were removed from freshly sacrificed rats (Sprague-Dawley, Charles-River, Germany). The left atria were isolated and fastened to force transducers in a temperature-controlled (30° C.), gasified (O2 95%, CO2 5%) organ bath which was filled with modified Tyrode solution (all values in mM: NaCl 137; KCl 2.7; CaCl2 1.8; MgCl2 0.8; NaHCO3 11.9; NaH2PO4 0.6; glucose 5). In order to trigger regular contractions, the preparations were electrically stimulated (rectangular pulses, pulse magnitude 3.5× threshold stimulus, pulse width 1.5 ms, frequency 1 Hz). Initially, the initial value of the functional refractory period was determined by applying extra pulses in addition to the basic stimulus, the elapsed time from the preceding basic stimulus being shortened until no further additional contraction could be triggered. Then the cumulative addition of increasing concentrations (0.1-32 μM) of the substances of Formula I took place at intervals of 20 min. each, the refractory period being determined again in each case 18 min. after the addition had taken place. Before the measurement, stock solutions of the test substances (3.2 and 0.32 mM in 100% DMSO) were prepared. In order to achieve the desired final concentrations of the substances (0.1-32 μM) in the organ bath (volume 25 or 100 ml), corresponding volumes of these stock solutions were then poured into the organ bath.
In each case the prolongation of the functional refractory period (FRP) in the left atrium of the rats' hearts in milliseconds observed after the addition of 10 or 32 μM of the respective substance of Formula I to the atrial preparations was given as characteristic variable.

[2] = target: T1, Kv1.3-potassium channel (Homo sapiens, UniProt P22001); experiment: Kv1.3-potassium channel-blocking effect in vitro (membrane potential-sensitive dye fluorescence in transfected CHO cells); type: cell-based; settings: 10 μM test substance; CHO cells transfected with Kv1.3; relative to margatoxin
T1 construct: expressed in transfected cells; host or cells: CHO (Chinese hamster ovary) cells, stably transfected with a Kv1.3 plasmid
Excerpt: In this test model, known ovary cells of the Chinese hamster (=CHO) are used which are stably transfected with the Kv1.3-potassium channel The blockade of the cell-inherent Kv1.3-potassium channel activity in the transfected cells is accompanied by a positive shift in the membrane potential from approx. −40 mV to −30 mV, whereas in the wild-type CHO cells investigated in parallel no significant shift in the membrane potential is triggered. A change in the membrane potential is thus connected to the reduction in the Kv1.3-potassium channel activity. By blocking the Kv1.3-potassium channels e.g. with substances of Formula I and the resulting change in the membrane potential, an accumulation of a membrane potential-sensitive fluorescent dye in intracellular compartments of the ovary cells and ultimately increasing fluorescence occurs. The change in the membrane potential of the ovary cells is therefore measured indirectly via the increase in fluorescence of the membrane potential-sensitive dyes.
The cells were transfected with the Kv1.3 plasmid in known manner with a commercially obtainable transfection reagent (DMRIE-C from Gibco BRL, Germany). The successful transfection was verified by means of immunofluorescence and by “patch-clamp” investigations of the potassium ion current. The fluorescence measurements were performed on a Tecan Safire fluorescence reader from Tecan, Germany. In each case, the increase in the fluorescent intensity caused by the blockade of the Kv1.3-potassium channels in the ovary cells with substances of Formula I in a concentration of 10 μM was determined as characteristic variable. The increase in the fluorescent intensity was given in each case in percent (%) compared with an increase in the fluorescent intensity caused by the reference substance margatoxin. Margatoxin is known as a selective Kv1.3-potassium channel blocker (see e.g. M. Garcia-Calvo et al., J. Biol. Chem. 268 (1993) 18866-18874).

T1 sequence (P22001 whole entry): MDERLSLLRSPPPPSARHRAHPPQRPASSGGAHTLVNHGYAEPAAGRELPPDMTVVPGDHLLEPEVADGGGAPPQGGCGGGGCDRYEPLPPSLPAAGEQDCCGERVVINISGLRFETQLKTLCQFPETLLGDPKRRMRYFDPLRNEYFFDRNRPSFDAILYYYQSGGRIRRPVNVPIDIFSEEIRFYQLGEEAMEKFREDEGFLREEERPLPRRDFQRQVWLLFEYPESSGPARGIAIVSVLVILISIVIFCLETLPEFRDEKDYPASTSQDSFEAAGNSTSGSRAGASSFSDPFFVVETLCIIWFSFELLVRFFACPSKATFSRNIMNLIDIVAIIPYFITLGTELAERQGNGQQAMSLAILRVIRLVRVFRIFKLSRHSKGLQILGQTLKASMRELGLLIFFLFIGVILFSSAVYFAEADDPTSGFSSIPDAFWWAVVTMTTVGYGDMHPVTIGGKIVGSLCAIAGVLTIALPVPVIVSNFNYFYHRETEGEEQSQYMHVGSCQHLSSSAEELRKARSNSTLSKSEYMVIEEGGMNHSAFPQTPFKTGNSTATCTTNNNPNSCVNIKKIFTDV

CC(C)CCN([C@@H]1c2cc(CC(=O)NCCN3CCCCC3)ccc2OC(C)(C)[C@H]1O)S(=O)(=O)c1ccc(I)cc1 [Example 3, (3S, 4R)-2-{3-Hydroxy-4-[(4-iodobenzenesulfonyl)-(3-methylbutyl)amino]-2,2-dimethylchroman-6-yl}-N-(2-piperidin-1-ylethyl)acetamide]
FRP prolongation ([1]; 10 μM): 15 (10 μM) ms

CCCc1ccc(S(=O)(=O)N[C@@H]2c3cc(CC(=O)N4CCN(Cc5ccccc5)CC4)ccc3OC(C)(C)[C@H]2O)cc1 [Example 1]
FRP prolongation ([1]; 10 μM): 15 (10 μM) ms

Cc1ccc(S(=O)(=O)N(CC2CC2)[C@@H]2c3cc(CC(=O)N4CCN(Cc5ccccc5)CC4)ccc3OC(C)(C)[C@H]2O)cc1 [Example 7, (3S, 4R)-N-{6-[2-(4-Benzylpiperazin-1-yl)-2-Oxoethyl]-3-Hydroxy-2,2-Dimethylchroman-4-yl}-N-Cyclopropylmethyl-4-Methylbenzenesulfonamide]
FRP prolongation ([1]; 10 μM): 13 (10 μM) ms

CCC(CC)CN([C@@H]1c2cc(CC(=O)N[C@@H]3CCN(Cc4ccccc4)C3)ccc2OC(C)(C)[C@H]1O)S(=O)(=O)c1cccc(OC)c1 [Example 4, (3S, 4R)-N-(1-Benzylpyrrolidin-3R-yl)-2-{4-[(2-Ethylbutyl)-(3-Methoxybenzenesulfonyl)Amino]-3 -Hydroxy-2,2-Dimethylchroman-6-yl}Acetamide]
Increase in the fluorescent intensity (% margatoxin) [2]: 41.8 % margatoxin

CCc1ccc(S(=O)(=O)N[C@@H]2c3cc(CC(=O)N4CCN(Cc5cccnc5)CC4)ccc3OC(C)(C)[C@H]2O)cc1 [Example 8, 4-Ethyl-N-((3S,4R)-3-Hydroxy-2,2-Dimethyl-6-{2-Oxo-2-[4-(pyridin-3-ylmethyl)piperazin-1-yl]ethyl}-3,4-dihydro-2H-Chromen-4-yl)Benzenesulfonamide]
FRP prolongation ([1]; 32 μM): 22 (32 μM) ms

CCc1ccc(S(=O)(=O)NC2c3cc(CC(=O)N4CCN(Cc5ccccc5)CC4)ccc3OC(C)(C)C2O)cc1 (stereo not drawn) [Example 10, N-{6-[2-(4-benzyl-piperazin-1-yl)-2-oxo-ethyl]-3-hydroxy-2,2-dimethyl-chroman-4-yl}-4-ethyl-benzenesulfonamide]
FRP prolongation ([1]; 10 μM): 24 (10 μM) ms

COc1cccc(S(=O)(=O)N(CCC(C)C)[C@@H]2c3cc(CC(=O)NCC4CN(Cc5ccccc5)CCO4)ccc3OC(C)(C)[C@H]2O)c1 (stereo partly drawn) [Example 6]
Increase in the fluorescent intensity (% margatoxin) [2]: 59.9 % margatoxin | FRP prolongation ([1]; 32 μM): 16 (32 μM) ms

CCCCN(CC)CCNC(=O)Cc1ccc2c(c1)[C@@H](N(CC(CC)CC)S(=O)(=O)c1ccc(I)cc1)[C@H](O)C(C)(C)O2 [Example 5, (3S, 4R)-N-[2-(Butylethylamino)Ethyl]-2-{4-[(2-Ethylbutyl)-(4-iodobenzenesulfonyl)Amino]-3-Hydroxy-2,2-dimethylchroman-6-yl)Acetamide]
Increase in the fluorescent intensity (% margatoxin) [2]: 39.8 % margatoxin
